Consider 31 molecules from patent US9585891B2 (MERCK PATENT GMBH, priority 2012, dated 2017).

In the experiment the target is T1, Human recombinant Vanin-1 (VNN1) (Homo sapiens, UniProt O95497).
T1 construct: purchased Sino Biological Inc. 11662-H08H
T1 sequence (O95497 22-491): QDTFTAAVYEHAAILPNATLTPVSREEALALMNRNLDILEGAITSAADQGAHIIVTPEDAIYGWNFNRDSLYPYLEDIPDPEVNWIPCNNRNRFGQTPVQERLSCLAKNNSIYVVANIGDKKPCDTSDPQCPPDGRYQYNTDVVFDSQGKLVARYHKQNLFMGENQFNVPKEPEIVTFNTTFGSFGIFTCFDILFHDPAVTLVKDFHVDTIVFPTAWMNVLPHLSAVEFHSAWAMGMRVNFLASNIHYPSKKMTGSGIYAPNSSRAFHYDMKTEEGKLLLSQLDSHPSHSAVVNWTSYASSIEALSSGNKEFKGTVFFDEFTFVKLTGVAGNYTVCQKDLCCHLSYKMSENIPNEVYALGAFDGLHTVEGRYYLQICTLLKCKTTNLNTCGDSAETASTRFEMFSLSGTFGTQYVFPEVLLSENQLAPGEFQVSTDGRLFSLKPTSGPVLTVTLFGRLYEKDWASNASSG
The experiment in a line: Vanin-1 enzymatic assay (fluorescence intensity, Pantothenate-AMC substrate). The format is biochemical. The conditions noted are these: purified recombinant human Vanin-1 0.5 nM; 30 min preincubation at 30° C.; Pantothenate-AMC 30 μM, 60 min. As for the experimental part:
Human recombinant Vanin-1 (VNN1) was purchased from Sino Biological Inc. (Catalog Number: 11662-H08H).
Measurement of VNN1 inhibition is performed in 384-well format based on fluorescence intensity assay. Purified recombinant human Vanin-1 (0.5 nM) and threefold serial diluted compounds in 3% DMSO (range of concentrations from 30 μM to 1.524 nM) or controls (3.0% DMSO) are incubated for 30 minutes at 30° C. with gentle agitation in assay buffer containing 100 mM potassium Phosphate Buffer (KPi), pH 7.5, 0.001% Bovine Serum Albumin (BSA), 0.5 mM dithiothreitol (DTT) and 0.0025% Brij-35. The reaction is initiated by the addition of the fluorogenic substrate, Pantothenate-AMC, at a concentration of 30 μM. After 60 minutes of incubation at 30° C. with gentle agitation, fluorescence intensity is measured at λex=350 nm and λem=450 nm with a fluorescence reader (BMG PHERAstar reader or equivalent).

On to `CC(=O)CCNC(=O)[C@H](O)C(C)(C)CO` [Example 1, (R)-2,4-Dihydroxy-3,3-dimethyl-N-(3-oxo-butyl)-butyramide], for which the IC50 was determined as 5370 nM.
The figure for `CCC(=O)CCNC(=O)[C@H](O)C(C)(C)CO` [Example 2, (R)-2,4-Dihydroxy-3,3-dimethyl-N-(3-oxo-pentyl)-butyramide] is 20500 nM; for `CC(C)(CO)[C@@H](O)C(=O)NCCC(=O)C(=O)NCCc1ccccc1` [Example 12, (R)-2,4-Dihydroxy-3,3-dimethyl-N-(3-oxo-3-phenethylcarbamoyl-propyl)-butyramide] it is 90 nM; for `CC(C)(CO)[C@H](O)C(=O)NCCC(=O)C(=O)NCc1ccccc1` [Example 13, (S)—N-(3-Benzylcarbamoyl-3-oxo-propyl)-2,4-dihydroxy-3,3-dimethyl-butyramide] it is 460 nM.
The figure for `CC(C)(CO)[C@@H](O)C(=O)NCCC(=O)C(=O)Nc1ccccc1` [Example 16, (R)-2,4-Dihydroxy-3,3-dimethyl-N-(3-oxo-3-phenylcarbamoyl-propyl)-butyramide] is 8320 nM; for `CC(C)(CO)[C@@H](O)C(=O)NCCC(=O)C(=O)NC1CCCCC1` [Example 18, (R)—N-(3-Cyclohexylcarbamoyl-3-oxo-propyl)-2,4-dihydroxy-3,3-dimethyl butyramide] it is 3350 nM; for `CC(NC(=O)C(=O)CCNC(=O)[C@H](O)C(C)(C)CO)c1ccccc1` (stereo partly shown) [Example 20] it is 3030 nM.
The figure for `CC(C)(CO)[C@@H](O)C(=O)NCCC(=O)C(=O)NC(c1ccccc1)c1ccccc1` [Example 21, (R)—N-[3-(Benzhythyl-carbamoyl)-3-oxo-propyl]-2,4-dihydroxy-3,3-dimethyl-butyramide] is 11500 nM; for `COC(=O)CNC(=O)C(=O)CCNC(=O)[C@H](O)C(C)(C)CO` [Example 25, [4-((R)-2,4-Dihydroxy-3,3-dimethyl-butyrylamino)-2-oxo-butyrylamino]-acetic acid methyl ester] it is 2320 nM.
For `CN(Cc1ccccc1)C(=O)C(=O)CCNC(=O)[C@H](O)C(C)(C)CO` [Example 27], the IC50 turned out to be 9730 nM.
The figure for `CC(C)(CO)[C@@H](O)C(=O)NCCC(=O)C(=O)NCC1CCCO1` (stereo partly drawn) [Example 29, (R)-2,4-Dihydroxy-3,3-dimethyl-N-(3-oxo-3-[(tetrahydro-furan-2-ylmethyl)-carbamoyl]-propyl)-butyramide] is 700 nM.
Take `CC(C)(CO)[C@@H](O)C(=O)NCCC(=O)C(=O)NCCc1ccc(S(C)(=O)=O)cc1` [Example 30, (R)-2,4-Dihydroxy-N-{3-[2-(4-methanesulfonyl-phenyl)-ethylcarbamoyl]-3-oxo-propyl}-3,3-dimethyl-butyramide]: the IC50 was 30 nM.
The figure for `CC(C)(CO)[C@@H](O)C(=O)NCCC(=O)C(=O)NCC1CCN(S(=O)(=O)c2ccccc2)CC1` [Example 34, (R)—N-(3-[(1-Benzenesulfonyl-piperidin-4-ylmethyl)-carbamoyl]-3-oxo-propyl)-2,4-dihydroxy-3,3-dimethyl-butyramide] is 20 nM.
The figure for `CC(C)(CO)[C@@H](O)C(=O)NCCC(=O)C(=O)NCCCc1ccc(S(=O)(=O)N2CCCCC2)cc1` [Example 35, (R)-2,4-Dihydroxy-3,3-dimethyl-N-(3-oxo-3-{3-[4-(piperidine-1-sulfonyl)-phenyl]-propylcarbamoyl}-propyl)-butyramide] is 70 nM.
For `CC(C)(CO)[C@@H](O)C(=O)NCCC(=O)C(=O)NCc1cccc(S(=O)(=O)N2CCCCC2)c1` [Example 36, (R)-2,4-Dihydroxy-3,3-dimethyl-N-{3-oxo-3-[3-(piperidine-1-sulfonyl)-benzylcarbamoyl}-propyl)-butyramide], the IC50 stood at 170 nM.
The figure for `CC(C)(CO)[C@@H](O)C(=O)NCCC(=O)C(=O)NCc1ccc(Oc2ccncc2)cc1` [Example 37, (R)-2,4-Dihydroxy-3,3-dimethyl-N-{3-oxo-3-[4-(pyridin-4-yloxy)-benzylcarbamoyl]-propyl}-butyramide] is 10 nM.
The figure for `CC(C)(CO)[C@@H](O)C(=O)NCCC(=O)C(=O)NCC1CCN(S(=O)(=O)c2ccc(-c3ccccc3)cc2)CC1` [Example 38, (R)—N-(3-{[1-(Biphenyl-4-sulfonyl)-piperidin-4-ylmethyl]-carbamoyl}-3-oxo-propyl)-2,4-dihydroxy-3,3-dimethyl-butyramide] is < 10 nM; for `CC(C)(CO)[C@@H](O)C(=O)NCCC(=O)C(=O)NCCCN1CCOCC1=O` [Example 40, (R)-2,4-Dihydroxy-3,3-dimethyl-N-{3-oxo-3-[3-(3-oxo-morpholin-4-yl)-propylcarbamoyl}-propyl)butyramide] it is 400 nM; for `CC(C)(CO)[C@@H](O)C(=O)NCCC(=O)C(=O)NCc1ccc(N2CCOCC2)cc1` [Example 41, (R)-2,4-Dihydroxy-3,3-dimethyl-N-[3-(4-morpholin-4-yl-benzylcarbamoyl)-3-oxo-propyl]-butyramide] it is 10 nM.
The figure for `CC(C)(CO)[C@@H](O)C(=O)NCCC(=O)C(=O)NCCOc1ccccc1` [Example 42, (R)-2,4-Dihydroxy-3,3-dimethyl-N-[3-oxo-3-(2-phenoxy-ethylcarbamoyl)-propyl]-butyramide] is 340 nM.
As for `CC(C)(CO)[C@@H](O)C(=O)NCCC(=O)C(=O)N1CCC(Nc2cccc(S(=O)(=O)C(F)(F)F)c2)CC1` [Example 43, (R)—N-{3,4-Dioxo-4-[4-(3-trifluoromethanesulfonyl-phenylamino)-piperidin-1-yl]-butyl}-2,4-dihydroxy-3,3-dimethyl-butyramide], the IC50 worked out at 12600 nM.
Turning to `CC(C)(CO)[C@@H](O)C(=O)NCCC(=O)C(=O)NCc1ccc(OCCN2CCOCC2)cc1` [Example 44, (R)-2,4-Dihydroxy-3,3-dimethyl-N-(3-[4-(2-morpholin-4-yl-ethoxy)-benzylcarbamoyl]-3-oxo-propyl)-butyramide], the half-maximal inhibitory concentration (IC50) turned out to be 50 nM.
The figure for `CCOC(=O)c1ccc(CNC(=O)C(=O)CCNC(=O)[C@H](O)C(C)(C)CO)cc1` [Example 45, 4-{[4-((R)-2,4-Dihydroxy-3,3-dimethyl-butyrylamino)-2-oxo-butyrylamino]-methyl}-benzoic acid ethyl ester] is 20 nM.
The figure for `CC(C)(CO)[C@@H](O)C(=O)NCCC(=O)C(=O)NCC1CCN(S(=O)(=O)c2ccc(N3CCCC3=O)cc2)CC1` [Example 46, (R)-2,4-Dihydroxy-3,3-dimethyl-N-[3-oxo-3-({1-[4-(2-oxo-pyrrolidin-1-yl)-benzenesulfonyl]-piperidin-4-ylmethyl}-carbamoyl)-propyl]-butyramide] is < 10 nM; for `CC(C)(CO)[C@@H](O)C(=O)NCCC(=O)C(=O)NCC1CCN(S(C)(=O)=O)CC1` [Example 47, (R)-2,4-Dihydroxy-N-(3-[(1-methanesulfonyl-piperidin-4-ylmethyl)-carbamoyl]-3-oxo-propyl)-3,3-dimethyl-butyramide] it is 20 nM.
In the case of `CC(=O)N1CCC(CNC(=O)C(=O)CCNC(=O)[C@H](O)C(C)(C)CO)CC1` [Example 48, (R)—N-(3-[(1-Acetyl-piperidin-4-ylmethyl)-carbamoyl]-3-oxo-propyl)-2,4-dihydroxy-3,3-dimethyl-butyramide], the IC50 worked out at 110 nM.
In the case of `CC(C)(CO)[C@@H](O)C(=O)NCCC(=O)C(=O)N1CCOCC1` [Example 49, (R)-2,4-Dihydroxy-3,3-dimethyl-N-(4-morpholin-4-yl-3,4-dioxo-butyl)-butyramide], the IC50 was found to be 23000 nM.
In the case of `COCCOc1ccc(CNC(=O)C(=O)CCNC(=O)[C@H](O)C(C)(C)CO)cc1` [Example 50, (R)-2,4-Dihydroxy-N-(3-[4-(2-methoxy-ethoxy)-benzylcarbamoyl]-3-oxo-propyl)-3,3-dimethyl-butyramide], the IC50 came to 30 nM.
The figure for `CC(C)(CO)[C@@H](O)C(=O)NCCC(=O)C(=O)NCC1CCN(S(=O)(=O)c2cccc(F)c2)CC1` [Example 51, (R)—N-(3-{[1-(3-Fluoro-benzenesulfonyl)-piperidin-4-ylmethyl]-carbamoyl}-3-oxo-propyl)-2,4-dihydroxy-3,3-dimethyl-butyramide] is 20 nM; for `CC(C)(CO)[C@@H](O)C(=O)NCCC(=O)C(=O)NCC1CCN(S(=O)(=O)Cc2cccc(F)c2)CC1` [Example 52, (R)—N-(3-{[1-(3-Fluoro-phenylmethanesulfonyl)-piperidin-4-ylmethyl]-carbamoyl}-3-oxo-propyl)-2,4-dihydroxy-3,3-dimethyl-butyramide] it is 50 nM; for `CC(C)(CO)[C@@H](O)C(=O)NCCC(=O)C(=O)NCc1ccc(-c2ccc(S(C)(=O)=O)cc2)cc1` [Example 53, (R)-2,4-Dihydroxy-N-{3-[(4′-methanesulfonyl-biphenyl-4-ylmethyl)-carbamoyl]-3-oxo-propyl}-3,3-dimethyl-butyramide] it is 10 nM.
